Measurements from patent publication US20260256792A1, “TREATMENT OF CHRONIC SPONTANEOUS URTICARIA BY ADMINISTERING (R)-2-[3-[4-AMINO-3-(2-FLUORO-4-PHENOXY-PHENYL)PYRAZOLO[3,4-D]PYRIMIDIN-1-YL]PIPERIDINE-1-CARBONYL]-4-METHYL-4-[4-(OXETAN-3-YL)PIPERAZIN-1-YL]PENT-2-ENENITRILE” (priority 2023, published 2026).

Tested on: moderate-to-severe chronic spontaneous urticaria (CSU)
Assay: Phase 2 CSU study: urticaria activity score over 7 days (UAS7)
Type: in vivo, human
Design: key to UAS7 Median / UAS7 Change from baseline Median / UAS7 change from baseline, Q1 / UAS7 change from baseline, Q3 / UAS7 change from baseline, Max / UAS7 Change from baseline LS Mean (SE): UAS7 points; daily UAS score ranges 0–6 points/day, over 7 days
From the text: The study comprises a 12 week, randomized, double-blind, placebo-controlled, multi-center, dose-ranging efficacy and safety phase, followed by a 40 week open label extension (OLE) phase (see FIG. 1). The study consists of three phases and an optional OLE phase. […] Clinically, CSU is characterized by the spontaneous and recurrent appearance of pruritic hives. The proposed primary endpoints were the UAS7 at Week 12 in EU and EU reference countries and the ISS7 in the US. Regardless of where a participant was from, all assessments were the same. The UAS7 score is a composite score containing both the HSS7 and the ISS7. This allowed a global assessment of the two key components of urticaria: hives and itch. […] The UAS is a validated PRO measure. […] The daily UAS scores range from 0 to 6 point/day. […] Patients were to complete the UAS using the e-diary. […] The following secondary endpoints were to be analyzed using the same approach as for the primary endpoint: • Change from baseline in UAS7 at Week 4 • Change from baseline in UAS7 at Week 12 (for US and US reference countries) • Change from baseline in ISS7 at Week 12 (except US and US reference countries) • Change from baseline in HSS7 at Week 12 The following responder secondary endpoints were to be analyzed using the Cochran-Mantel-Haenszel test adjusted by region: • Proportion of participants with UAS7<6 at Week 12 • Proportion of participants with UAS7=0 at Week 12 Participants who received selected prohibited medications and/or rescue medications were to be considered as non-responders for time points after the medication usage. For other participants, all available data including those collected during the off-treatment period were to be used to determine the responder/non-responder status. Missing data were to be considered as non-responders.

[1] = ITT Population, 400 mg TID, Week 1
[2] = ITT Population, 400 mg TID, Week 12
[3] = ITT population, 400 mg BID, Week 1
[4] = ITT population, 400 mg BID, Week 3
[5] = ITT population, 400 mg BID, Week 4
[6] = ITT population, 400 mg BID, Week 5
[7] = ITT population, 400 mg BID, Week 6
[8] = ITT population, 400 mg BID, Week 7
[9] = ITT population, 400 mg BID, Week 8
[10] = ITT population, 400 mg BID, Week 9
[11] = ITT population, 400 mg BID, Week 10
[12] = ITT population, 400 mg BID, Week 11
[13] = ITT population, 400 mg BID, Week 12
[14] = ITT population, 400 mg QPM, Week 1

## CC(C)(C=C(C#N)C(=O)N1CCC[C@@H](n2nc(-c3ccc(Oc4ccccc4)cc3F)c3c(N)ncnc32)C1)N1CCN(C2COC2)CC1 [rilzabrutinib, (R)-2-[3-[4-amino-3-(2-fluoro-4-phenoxy-phenyl)pyrazolo[3,4-d]pyrimidin-1-yl]piperidine-1-carbonyl]-4-methyl-4-[4-(oxetan-3-yl)piperazin-1-yl]pent-2-enenitrile]
ITT Population, 400 mg QPM, Week 5
  UAS7 Post-baseline Mean (SD): 20.58 (9.05)
[1]
  UAS7 % Change difference for rilzabrutinib vs. placebo LS Mean (95% CI): −29.94%
  UAS7 % Change from baseline LS Mean (SE): −40.18%
  UAS7 Change from baseline LS Mean (SE): −12.72
  UAS7 Post-baseline Mean (SD): 16.95 (10.13)
[2]
  UAS7 % Change difference for rilzabrutinib vs. placebo LS Mean (95% CI): −26.23%
  UAS7 % Change from baseline LS Mean (SE): −59.16%
  UAS7 Change difference for rilzabrutinib vs. placebo LS Mean (95% CI): −6.76
  UAS7 Change from baseline LS Mean (SE): −17.95
[3]
  UAS7 % Change difference for rilzabrutinib vs. placebo LS Mean (95% CI): −23.93%
  UAS7 % Change from baseline LS Mean (SE): −34.18%
  UAS7 Change difference for rilzabrutinib vs. placebo LS Mean (95% CI): −6.18
  UAS7 Change from baseline LS Mean (SE): −10.01
  UAS7 Post-baseline Mean (SD): 19.98 (11.35)
[4]
  UAS7 % Change difference for rilzabrutinib vs. placebo LS Mean (95% CI): −18.34%
  UAS7 % Change from baseline LS Mean (SE): −39.97%
  UAS7 Change difference for rilzabrutinib vs. placebo LS Mean (95% CI): −4.74
  UAS7 Change from baseline LS Mean (SE): −12.33
  UAS7 Post-baseline Mean (SD): 17.63 (12.02)
[5]
  UAS7 % Change difference for rilzabrutinib vs. placebo LS Mean (95% CI): −20.76%
  UAS7 % Change from baseline LS Mean (SE): −44.02%
  UAS7 Change difference for rilzabrutinib vs. placebo LS Mean (95% CI): −5.34
  UAS7 Change from baseline LS Mean (SE): −13.41
  UAS7 Post-baseline Mean (SD): 15.62 (12.20)
[6]
  UAS7 % Change difference for rilzabrutinib vs. placebo LS Mean (95% CI): −10.88%
  UAS7 % Change from baseline LS Mean (SE): −42.67%
  UAS7 Change difference for rilzabrutinib vs. placebo LS Mean (95% CI): −2.61
  UAS7 Change from baseline LS Mean (SE): −12.81
  UAS7 Post-baseline Mean (SD): 16.44 (13.70)
[7]
  UAS7 % Change difference for rilzabrutinib vs. placebo LS Mean (95% CI): −14.76%
  UAS7 % Change from baseline LS Mean (SE): −41.66%
  UAS7 Change difference for rilzabrutinib vs. placebo LS Mean (95% CI): −3.64
  UAS7 Change from baseline LS Mean (SE): −12.78
  UAS7 Post-baseline Mean (SD): 16.51 (12.98)
[8]
  UAS7 % Change difference for rilzabrutinib vs. placebo LS Mean (95% CI): −20.46%
  UAS7 % Change from baseline LS Mean (SE): −47.80%
  UAS7 Change difference for rilzabrutinib vs. placebo LS Mean (95% CI): −5.50
  UAS7 Change from baseline LS Mean (SE): −14.56
  UAS7 Post-baseline Mean (SD): 15.04 (12.35)
[9]
  UAS7 % Change difference for rilzabrutinib vs. placebo LS Mean (95% CI): −21.40%
  UAS7 % Change from baseline LS Mean (SE): −53.24%
  UAS7 Change difference for rilzabrutinib vs. placebo LS Mean (95% CI): −5.61
  UAS7 Change from baseline LS Mean (SE): −15.96
  UAS7 Post-baseline Mean (SD): 13.59 (13.23)
[10]
  UAS7 % Change difference for rilzabrutinib vs. placebo LS Mean (95% CI): −24.16%
  UAS7 % Change from baseline LS Mean (SE): −52.21%
  UAS7 Change difference for rilzabrutinib vs. placebo LS Mean (95% CI): −5.85
  UAS7 Change from baseline LS Mean (SE): −15.45
  UAS7 Post-baseline Mean (SD): 14.13 (14.43)
[11]
  UAS7 % Change difference for rilzabrutinib vs. placebo LS Mean (95% CI): −17.60%
  UAS7 % Change from baseline LS Mean (SE): −51.13%
  UAS7 Change difference for rilzabrutinib vs. placebo LS Mean (95% CI): −4.46
  UAS7 Change from baseline LS Mean (SE): −15.36
  UAS7 Post-baseline Mean (SD): 14.82 (14.24)
[12]
  UAS7 % Change difference for rilzabrutinib vs. placebo LS Mean (95% CI): −19.11%
  UAS7 % Change from baseline LS Mean (SE): −49.87%
  UAS7 Change difference for rilzabrutinib vs. placebo LS Mean (95% CI): −4.55
  UAS7 Change from baseline LS Mean (SE): −14.95
  UAS7 Post-baseline Mean (SD): 14.55 (13.86)
[13]
  UAS7 % Change difference for rilzabrutinib vs. placebo LS Mean (95% CI): −16.41%
  UAS7 % Change from baseline LS Mean (SE): −49.34%
  UAS7 Change difference for rilzabrutinib vs. placebo LS Mean (95% CI): −3.62
  UAS7 Change from baseline LS Mean (SE): −14.82
  UAS7 Post-baseline Mean (SD): 14.70 (14.29)
[14]
  UAS7 % Change difference for rilzabrutinib vs. placebo LS Mean (95% CI): −12.22%
  UAS7 % Change from baseline LS Mean (SE): −22.47%
